System: bone marrow suppression induced by cyclophosphamide in KM-mice
Assay: Pharmacodynamic experiment: cyclophosphamide-induced bone marrow suppression, peripheral blood counts
Assay type: in vivo
Procedure: 1. Experimental Materials, Reagents, Apparatus
Test drugs were ziyuglycoside II micelles and ziyuglycoside II powder.
Tool drug was cyclophosphamide.
Laboratory animals were KM-mice: 18.5-22.5 g.
Laboratory apparatus: Automatic blood counting analyzer; BS-600L electronic balance: specification: 600 g/0.1 g, Shanghai Yousheng Weighing Apparatus Co. Ltd.
Statistical analysis was performed using SPSS 17.0 software. Data were expressed as mean±standard error (x±S), and one-factor analysis of variance was used among groups. For homogeneity of variance, data between groups were compared by LSD test, while for heterogeneity of variance, data between groups were compared by Tamhane's T2 test.
After all animals were adaptively fed for one week, according to the body weight, animals were randomly divided as blank group; model group; ziyuglycoside II micelle sample groups 1-4 (respectively using micelles prepared in examples 1-4), with a dosage of 2.5 mg·kg^−1, preparation before use; ziyuglycoside II group: powder of ziyuglycoside II raw materials, dissolved in 10% DMSO-normal saline, with a dosage of 2.5 mg·kg^−1, preparation before use. On the first day of experiment, except for blank group, mice in other groups received cyclophosphamide normal saline solution at a dose of 120 mg·kg^−1 by peritoneal injection, and mice in blank group received the same volume of normal saline by peritoneal injection.
From the first day of experiment, each experimental group was given the corresponding drug as the predetermined dosage and administration mode, and mice in blank group and model group were given a same volume of normal saline by injection into the tail vein, for successive 6 days.
On the seventh day of experiment, whole blood was collected from orbit of mice in each experimental group, and placed in 0.5 ml EP tubes containing EDTA anticoagulant agent for test.
White blood cells (WBC), neutrophilic granulocytes (NEUT), red blood cells (RBC), platelets (PLT), and hemoglobin (HGB) in peripheral blood of mice in each experimental group were counted using automatic blood counting instrument.

[1] = cyclophosphamide 120 mg/kg i.p. day 1, drug 2.5 mg/kg for 6 days, blood on day 7, mean±standard error

C[C@@H]1CC[C@]2(C(=O)O)CC[C@]3(C)C(=CC[C@@H]4[C@@]5(C)CC[C@H](O[C@@H]6OC[C@H](O)[C@H](O)[C@H]6O)C(C)(C)[C@@H]5CC[C@]43C)[C@@H]2[C@]1(C)O [Ziyuglycoside II, 3-O-α-L-arabinosyl-19α-hydroxyurs-12-en-28-oic acid]
numbers of NEUT and HGB in peripheral blood compared with model group (2.5 mg/kg, P<0.05): did not show significant difference
numbers of WBC, RBC, and PLT in peripheral blood compared with model group (2.5 mg/kg, P<0.05): did not show significant difference
HGB in peripheral blood [1]: 44.65 ± 7.27 g/L
NEUT in peripheral blood [1]: 2.47 ± 0.55 ×10^9
PLT in peripheral blood [1]: 221.18 ± 6.15 ^ ×10^9
RBC in peripheral blood [1]: 3.54 ± 0.11 ×10^12
WBC in peripheral blood [1]: 3.71 ± 0.13 ×10^9

Reference: patent publication US10493029B2, “Ziyuglycoside II polymer micelle and preparative methods thereof” (SICHUAN INLU WEITE PHARMACEUTICAL TECHNOLOGY CO., LTD., priority 2016, dated 2019)
